Assay results: article PMC6684685, “Evaluation of polydentate picolinic acid chelating ligands and an α-melanocyte-stimulating hormone derivative for targeted alpha therapy using ISOL-produced ^225Ac” (EJNMMI Radiopharmacy and Chemistry, 2019)
Where two headings read alike, the source gives them in different places.

How the values were obtained:
[1] = 50-fold excess La^III, ref Thiele et al. [2017], cited from earlier work
[2] = human serum, n = 1, ref Thiele et al. [2017], cited from earlier work
[3] = La(III) exchange competition assay, 50-fold excess La; type: physicochemical; conditions: 50-fold excess La^III, ambient temperature
Protocol: (§1) Varying TLC/iTLC plate systems were selected for different ligands based from results of positive and negative radiolabeling controls: • Method A, for [^225Ac(octapa)]^− and [^225Ac(CHXoctapa)]^−: iTLC-SG plates (Agilent, 2 cm × 10 cm, baseline at 1.5 cm), developed using 10 mM NaOH/9% NaCl solution. Under these conditions free ^225Ac^III remains at the baseline (Rf = 0), while the ^225Ac-ligand complex migrates upwards with the solvent (Rf > 0); or • Method B, for [^225Ac(bispa^2)]^+ and [^225Ac(macropa)]^+: aluminum-backed ultrapure silica gel 60 with 250 μm thickness TLC plates (Fisher, 2 cm × 10 cm, baseline at 1.5 cm), developed using 0.4 M sodium citrate (pH 4) with 10% methanol. Under these conditions free ^225Ac^III migrates with the solvent front (Rf = 1), while ^225Ac-ligand complex remains at the baseline (Rf = 0); (Comba et al. [2017]; Thiele et al. [2017]) or • Method C, for [^225Ac(DOTA)]^−: iTLC-SA plates (Agilent, 2 × 10 cm, baseline at 1.5 cm) and developed using 50 mM EDTA buffer, pH 4. Under these conditions free ^225Ac^III migrates with the solvent front (Rf = 1), while ^225Ac-ligand complex remains at the baseline (Rf = 0); or • Method D, for human serum stability (below): aluminum-backed ultrapure silica gel 60 with 250 um thickness TLC plates (Fisher, 2 cm × 10 cm, baseline at 1.5 cm), developed in 50 mM EDTA, pH 5. Under these conditions, chelate-bound ^225Ac remains at the baseline (Rf = 0), and any ^225Ac^III that has de-complexed from the chelate will travel with the solvent front (Rf = 1). Method D was validated by incubating “free” ^225Ac^III with human serum under analogous conditions to ensure all the activity eluted with the solvent front (Rf ~ 1).
The stability of a radiometal-chelate complex is also often assessed by its ability to withstand transchelation in the presence of excess stable isotopes of the radiometal. Though this is an impossible experiment to perform with Ac since all Ac isotopes are unstable, lanthanum(III) has a similar ionic radius ([…], CN = 6–9) and charge to actinium(III) and is often considered a chemical surrogate to Ac^III. Using non-radioactive metal ions such as La^III as a competitor for ligand complexation is a straightforward method to probe the kinetic off-rate of a pre-formed Ac^III complex, since many ligands that bind Ac^III may also efficiently complex La^III. Herein, ^225Ac-complexes were prepared using the radiolabeling protocols described above and combined with La(NO3)3 (0.1 M, 50 M equivalents compared to the ligand) and allowed to react at ambient temperature. At varying time points (1 h – 7 d), aliquots of the competition reaction mixture (1–5 μL) were spotted on aluminum backed TLC plates and developed using the TLC methods described above.

[4] = Stability of 225Ac complexes in human serum (competition, TLC); type: in vitro ADME; conditions: ambient temperature
Protocol: as §1
To investigate the stabilities of the ^225Ac-complexes, a competition experiment was performed in the presence of excess human serum and the displacement of radioactivity from the chelator to serum proteins was tracked over the course of seven days. Endogenous metal-binding proteins in serum such as apo-transferrin and metallothionein can compete for and displace chelator-bound metal ions in vivo, preventing successful delivery of the radionuclide to the desired target. The ^225Ac-complexes were prepared using the radiolabeling protocols described above and added to an equal volume (170–180 μL) of human serum (stored at − 5 °C and thawed at ambient temperature). At varying time points (0.5 h to 7 days), small aliquots (1–5 μL) were spotted on iTLC plates using Methods B or D, described above. Representative TLC radio-chromatograms of a serum competition assay with ligand and control are presented in Additional file 1: Figures S2 and S3.

Row | Structure (SMILES) | % Stable ([3]; 1 h) [%] | % Stable ([3]; 5 h) [%] | % Stable ([3]; 1 d) [%] | % Stable ([3]; 2 d) [%] | % Stable ([3]; 7 d) [%] | % Stable ([4]; 1 h) [%] | % Stable ([4]; 4 h) [%] | % Stable ([4]; 1 d) [%] | % Stable ([4]; 2 d) [%] | % Stable ([4]; 4 d) [%] | % Stable ([4]; 7 d) [%] | % Stable ([4]; 3 d) [%] | also measured
1 | O=C([O-])c1cccc(CN2CCOCCOCCN(Cc3cccc(C(=O)[O-])n3)CCOCCOCC2)n1.[225Ac+3] [[^225Ac(macropa)]^+] | – | – | – | – | – | – | – | – | – | – | – | – | % Stable ([1]; 1 h): 95%; % Stable ([1]; 1 d): 93%; % Stable ([1]; 2 d): 92%; % Stable ([1]; 3 d): 91%; % Stable ([1]; 6 d): 93%; % Stable ([1]; 7 d column (footnote: 8 d time point)): 91^b %; % Stable ([1]; 7 d column (footnote: 8 d time point), listed as [^225Ac(macropa)]^−): 91%; % Stable ([2]; 0.5 h): 96%; % Stable ([2]; 1 h): 95%; % Stable ([2]; 4 h): 93%; % Stable ([2]; 1 d): 90%; % Stable ([2]; 2 d): 93%; % Stable ([2]; 3 d): 90%; % Stable ([2]; 7 d): 90%
2 | O=C([O-])CN1CCN(CC(=O)[O-])CCN(CC(=O)[O-])CCN(CC(=O)[O-])CC1.[225Ac+3] [[^225Ac(DOTA)]^−, reference compound] | 95.2 ± 3.3 | 94.5 ± 3.5 | 94.9 ± 2.9 | 86.2 ± 3.1 | 77.1 ± 3.6 | 93.9 ± 4.5 | 94.4 ± 3.7 | 90.9 ± 5.6 | 91.8 ± 5.6 | 91.1 ± 6.1 | 84.7 ± 8.1 | – | % Stable ([4]; 0.5 h): 92.4 ± 4.0%
3 | O=C([O-])CN(CCN(CC(=O)[O-])Cc1cccc(C(=O)[O-])n1)Cc1cccc(C(=O)[O-])n1.[225Ac+3] [[^225Ac(octapa)]^−] | 78.9 ± 2.9 | 42.7 ± 0.3 | 4.7 ± 1.5 | 6.1 ± 2.6 | – | 97.9 ± 0.9 | 96.9 ± 1.5 | 94.9 ± 1.2 | 96.1 ± 1.0 | 95.9 ± 1.9 | 92.9 ± 1.0 | 94.9 ± 1.1 | –
4 | O=C([O-])CN(Cc1cccc(C(=O)[O-])n1)C1CCCCC1N(CC(=O)[O-])Cc1cccc(C(=O)[O-])n1.[225Ac+3] (centres unmarked) [[^225Ac(CHXoctapa)]^−] | – | 81.8 ± 4.3 | 45.7 ± 3.1 | 26.5 ± 8.9 | 3.9 ± 0.6 | 95.9 ± 1.0 | 96.8 ± 1.7 | 97.0 ± 0.9 | 96.7 ± 1.6 | 96.7 ± 1.2 | 95.6 ± 1.6 | 96.1 ± 1.5 | % Stable ([3]; 3 d): 18.1 ± 0.4%; % Stable ([3]; 6 d): 5.0 ± 0.4%
5 | O=C([O-])c1cccc(CN(CCN(Cc2cccc(C(=O)[O-])n2)CP(=O)([O-])[O-])CP(=O)([O-])[O-])n1.[225Ac+3] [[^225Ac(phospa)]^3−] | – | 0 | – | – | – | 81.6 ± 1.1 | – | 81.5 ± 0.2 | – | 76.2 ± 0.1 | 77.1 ± 6.4 | 80.2 ± 1.1 | –
